Measured values published in publication PMC5391603, “Identification and functional characterisation of a Schistosoma japonicum insulin-like peptide” (Parasites & Vectors, 2017).
Entries after “also recorded” stand apart in the source; their conditions may differ.

Legend:
[1] = ADP assay (ADP hydrolysis/consumption by proteins); assay type: biochemical; settings: ADP assay kit, protein 0.13 mg/ml, 20 min incubation, ADP 0, 5, 15, 30 μM
Method: To measure the level of hydrolysis of ADP by the schistosome ILP, ADP assay kits (Sigma-Aldrich) were used to measure ADP levels of recombinant schistosome ILPs after their interaction with different concentrations of ADP. ADP levels in various proteins (0.13 mg/ml) were determined following their incubation for 20 min with different concentrations of ADP (0, 5, 15, 30 μM).

[2] = system: Erk (p44/42 MAPK) in adult S. japonicum; test: Erk phosphorylation in adult worms, Western blot with anti-phospho-P44/42 MAPK (Erk1/2) antibody; assay type: cell-based
Description: It had been shown previously that an anti-phospho-P44/42 MAPK (Erk1/2) antibody could recognize exclusively activated (phosphorylated) forms of this kinase in S. mansoni because of the high sequence homology in key phosphorylation sites between kinases from schistosomes and humans, and because phosphorylation at these sites is vital for enzyme activation. […] Worms from the different groups were then collected for SWAP extraction which was undertaken in the presence of HALT protease/phosphatase inhibitor cocktail (ThermoFisher, Waltham, USA). SDS-PAGE/Western blotting was carried out as described above using the Odyssey system. […] An anti-actin antibody (Sigma-Aldrich) (1:150) was used to assess protein-loading differences. OdysseyClassic 3.0 software was used for Western blot quantification.

[3] = system: S. japonicum IRs (SjIR1 and SjIR2); design: method as in PMID 25961574; settings: ref [18]; cited from earlier work
adult S. japonicum = settings: in vitro, ref [15], cited from earlier work
Description: The life-cycle of schistosomes involves snail intermediate hosts and definitive mammalian hosts including humans, in whom schistosomes can survive for decades. Remarkably, the highly sophisticated relationship between schistosomes and their mammalian hosts seems to involve exploitation by these parasites of host endocrine and immune signals. By binding many ligands including hormones, growth factors, cytokines, receptor tyrosine kinases (RTKs), which are high-affinity cell surface receptors, can be activated to trigger different signalling cellular cascades for the regulation ...

[4] = molecular target: recombinant Schistosoma japonicum insulin-like peptide, C-terminal fragment T31-S130 (S. japonicum); test: BLI; Octet RED, 25 °C; biotinylated rSjILP (150 ng/μl) immobilised on streptavidin biosensors, exposed to rSjLD1 or rSjLD2 (7, 14, 28, 56, 112 ng/μl); kinetic buffer (1 mM phosphate, 15 mM NaCl, 0.1 mg/ml BSA, 0.002% Tween-20); association 1000 s, dissociation 1000 s; BSA as reference
[5] = molecular target: T1, recombinant ligand domain of S. japonicum insulin receptor 1 (S. japonicum, biotin (NHS-PEO4-biotin kit) where it was immobilised on streptavidin biosensors); test: BLI
T1 chain: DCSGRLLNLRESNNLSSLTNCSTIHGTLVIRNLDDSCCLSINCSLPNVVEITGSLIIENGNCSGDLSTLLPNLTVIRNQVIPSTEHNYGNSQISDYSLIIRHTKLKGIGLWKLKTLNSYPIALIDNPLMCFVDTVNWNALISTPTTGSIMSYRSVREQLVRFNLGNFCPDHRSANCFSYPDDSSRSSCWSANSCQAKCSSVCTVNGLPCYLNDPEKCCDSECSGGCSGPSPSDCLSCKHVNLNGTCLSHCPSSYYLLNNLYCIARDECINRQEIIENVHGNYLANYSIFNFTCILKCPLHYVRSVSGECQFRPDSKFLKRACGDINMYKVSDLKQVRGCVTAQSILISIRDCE

Molecule: human insulin: human insulin (Sigma-Aldrich)
- ADP hydrolysis, result in words [1]: no ADP binding ability was observed
- reduction of Erk band intensity compared with worms co-stimulated with rSjILP and insulin ([2]; human insulin only (1 μM), 30 min, t (6) = 31.39, P = 0.001, experiment performed twice): 58%
- Erk phosphorylation (44 kDa band), result in words ([2]; rSjILP 1 μM and/or human insulin 1 μM, 30 min in DMEM, anti-phospho-P44/42 MAPK antibody (1:1,000), experiment performed twice): The Erk band was also detectable; also recorded: more phosphorylated Erk was observed in worms stimulated with human insulin compared with worms cultured without insulin
- reduction of Erk band intensity in worms without human insulin and rSjILP, compared with insulin only ([2]; value is the intensity of untreated worms relative to human insulin only (1 μM), 30 min, t (6) = 4.353, P = 0.049): 30%
- binding of human insulin to SjIR1 and SjIR2, in words [3]: bind strongly with both SjIR1 and SjIR2
- increase of glucose content of adult female S. japonicum (adult S. japonicum; female worms): 2.9 fold
- increase of glucose content of adult male S. japonicum (adult S. japonicum; male worms): 1.7 fold

Molecule: recombinant ligand domain of S. japonicum insulin receptor 1 (domain or fragment)
- Kd [4]: 0.226 nM

Molecule: recombinant ligand domain of S. japonicum insulin receptor 2 (domain or fragment)
- Kd [4]: 0.16 nM

B1: recombinant Schistosoma japonicum insulin-like peptide, C-terminal fragment T31-S130 (domain or fragment)
chain: THSLPELQTDYTPINDYPIRMCGNEFLRHLKRVCAIRGIYTPLVRFKRSLEQYYDRILQRGKRFDDLCTLYTIYEPDQVVTKCCCIGCTRSYLEQFCNPS
modifications: biotin (NHS-PEO4-biotin kit) where it was immobilised on streptavidin biosensors
- Kd [5]: 0.255 nM
